Laboratory results reported in patent US20100298141A1, “SUBSTITUTED PYRIDINE N-OXIDE HERBICIDES” (E. I. DU PONT DE NEMOURS AND COMPANY, priority 2007, published 2010).

Columns and labels:
[1] = test system: barnyardgrass; assay: Test A pre-/postemergence greenhouse test; format: in vivo, Echinochloa crus-galli; settings: for Plant response rating, Barnyardgrass: 0 to 100 scale where 0 is no effect and 100 is complete control; for Barnyardgrass plant response rating: 0 to 100 scale
How it was run: (§1)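 Visual injury ratings, made relative to untreated controls roughly ten days after treatment, cover both preemergence and postemergence application. Compounds in a surfactant-containing non-phytotoxic solvent were sprayed onto the soil surface after sowing and, simultaneously, onto young plants at the one- to two-leaf stage.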

[2] = test system: redroot pigweed; assay: Test A pre-/postemergence greenhouse test; format: in vivo, Amaranthus retroflexus; settings: for Plant response rating, Pigweed: 0 to 100 scale where 0 is no effect and 100 is complete control; for Pigweed plant response rating: 0 to 100 scale
How it was run: as §1

[3] = test system: velvetleaf; assay: Test A pre-/postemergence greenhouse test; format: in vivo, Abutilon theophrasti; settings: for Plant response rating, Velvetleaf: 0 to 100 scale where 0 is no effect and 100 is complete control; for Velvetleaf plant response rating: 0 to 100 scale
How it was run: as §1

[4] = test system: downy brome; assay: Test C pre-/postemergence test; format: in vivo, Bromus tectorum
How it was run: (§2)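 Compounds in a non-phytotoxic solvent with surfactant applied preemergence to seeded pots and, at the same time, postemergence to plants 2–18 cm tall (1- to 4-leaf stage). Paddy tests: pots flooded to 3 cm, compound applied into the water, depth held throughout.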

[5] = test system: green foxtail; assay: Test C pre-/postemergence test; format: in vivo, Setaria viridis
How it was run: as §2

[6] = test system: wild oat; assay: Test C pre-/postemergence test; format: in vivo, Avena fatua
How it was run: as §2

[7] = test system: Surinam grass; assay: Test C pre-/postemergence test; format: in vivo, Brachiaria decumbens
How it was run: as §2

[8] = test system: cocklebur; assay: Test C pre-/postemergence test; format: in vivo, Xanthium strumarium
How it was run: as §2

[9] = test system: crabgrass; assay: Test C pre-/postemergence test; format: in vivo, Digitaria sanguinalis
How it was run: as §2

[10] = test system: giant foxtail; assay: Test C pre-/postemergence test; format: in vivo, Setaria faberii
How it was run: as §2

[11] = test system: johnsongrass; assay: Test C pre-/postemergence test; format: in vivo, Sorghum halepense
How it was run: as §2

[12] = test system: kochia; assay: Test C pre-/postemergence test; format: in vivo, Kochia scoparia
How it was run: as §2

[13] = test system: lambsquarters; assay: Test C pre-/postemergence test; format: in vivo, Chenopodium album
How it was run: as §2

[14] = test system: eastern black nightshade; assay: Test C pre-/postemergence test; format: in vivo, Solanum ptycanthum
How it was run: as §2

[15] = test system: common ragweed; assay: Test C pre-/postemergence test; format: in vivo, Ambrosia elation
How it was run: as §2

[16] = test system: velvetleaf; assay: Test C pre-/postemergence test; format: in vivo, Abutilon theophrasti
How it was run: as §2

[17] = test system: rice; assay: Test C flooded paddy test; format: in vivo, Oryza sativa; settings: Flood
How it was run: (§3)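 Test compounds are applied straight into paddy water held 3 cm above the soil surface, with that flood maintained for the whole test. After 13 to 15 days in the greenhouse, each species is scored visually relative to controls.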

[18] = test system: duck salad; assay: Test C flooded paddy test; format: in vivo, Heteranthera limosa; settings: Flood
How it was run: as §3

[19] = Postemergence, 500 g ai/ha, 0 is no effect, 100 is complete control
[20] = Preemergence, 125 g ai/ha, 0 no effect, 100 complete control
[21] = 62 g ai/ha, Preemergence, scale 0 to 100
[22] = 125 g ai/ha, preemergence, scale 0 (no effect) to 100 (complete control)
[23] = Preemergence, 31 g ai/ha, scale 0 to 100 (0 no effect, 100 complete control)
[24] = preemergence, 250 g ai/ha, scale 0 (no effect) to 100 (complete control)
[25] = 31 g ai/ha, scale 0 to 100 (0 no effect, 100 complete control)
[26] = 62 g ai/ha, scale 0 to 100, 0 no effect, 100 complete control, 13 to 15 days
[27] = 125 g ai/ha, scale 0 to 100, 0 no effect, 100 complete control, 13 to 15 days
[28] = 250 g ai/ha, scale 0 to 100, 0 no effect, 100 complete control, 13 to 15 days

Cn1nc(C(F)(F)F)c(C[S+]([O-])c2ccc(F)c[n+]2[O-])c1Cl (stereo not drawn) [Compound 54]
10: Plant response rating, Velvetleaf ([3]; Postemergence, 125 g ai/ha) | Bromegrass, Downy plant response rating [4, 22] | Oat, Wild plant response rating [6, 21] | Ragweed plant response rating [15, 24]
60: Pigweed plant response rating [2, 19] | Bromegrass, Downy plant response rating [4, 24] | Plant response rating, Foxtail, Green [5, 23]
55: Plant response rating, Surinam Grass [7, 23]
40: Plant response rating, Pigweed ([2]; Postemergence, 125 g ai/ha) | Oat, Wild plant response rating [6, 24] | Plant response rating, Rice [17, 28]
70: Plant response rating, Barnyardgrass ([1]; Postemergence, 125 g ai/ha) | Velvetleaf plant response rating [3, 19] | Plant response rating, Velvetleaf ([3]; Preemergence, 500 g ai/ha)
15: Plant response rating, Rice [17, 27]
30: Velvetleaf plant response rating [3, 20] | Oat, Wild plant response rating [6, 22]
98: Foxtail, Giant plant response rating [10, 21]
90: Plant response rating, Barnyardgrass ([1]; Preemergence, 500 g ai/ha) | Pigweed plant response rating [2, 20] | Surinam Grass plant response rating [7, 21] | Plant response rating, Johnsongrass [11, 23] | Lambsquarters plant response rating [13, 21]
80: Barnyardgrass plant response rating [1, 19] | Barnyardgrass plant response rating [1, 20]
95: Foxtail, Green plant response rating [5, 21] | Foxtail, Green plant response rating [5, 22] | Foxtail, Green plant response rating [5, 24] | Johnsongrass plant response rating [11, 21]
100: Plant response rating, Pigweed ([2]; Preemergence, 500 g ai/ha) | Surinam Grass plant response rating [7, 22] | Surinam Grass plant response rating [7, 24] | Crabgrass, Large plant response rating [9, 21] | Crabgrass, Large plant response rating [9, 22] | Crabgrass, Large plant response rating [9, 24] | Foxtail, Giant plant response rating [10, 22] | Foxtail, Giant plant response rating [10, 24] | Johnsongrass plant response rating [11, 22] | Johnsongrass plant response rating [11, 24] | Kochia plant response rating [12, 21] | Kochia plant response rating [12, 22] | Kochia plant response rating [12, 24] | Lambsquarters plant response rating [13, 22] | Lambsquarters plant response rating [13, 24]
0: Bromegrass, Downy plant response rating [4, 21] | Plant response rating, Bromegrass, Downy [4, 23] | Plant response rating, Oat, Wild [6, 23] | Cocklebur plant response rating [8, 21] | Cocklebur plant response rating [8, 22] | Plant response rating, Cocklebur [8, 23] | Cocklebur plant response rating [8, 24] | Plant response rating, Lambsquarters [13, 23] | Plant response rating, Nightshade [14, 23] | Ragweed plant response rating [15, 21] | Plant response rating, Ragweed [15, 23] | Velvetleaf plant response rating [16, 21] | Plant response rating, Velvetleaf [16, 23] | Plant response rating, Rice [17, 25] | Plant response rating, Rice [17, 26] | Plant response rating, Ducksalad [18, 25] | Plant response rating, Ducksalad [18, 26] | Plant response rating, Ducksalad [18, 27]
85: Plant response rating, Crabgrass, Large [9, 23] | Plant response rating, Foxtail, Giant [10, 23] | Nightshade plant response rating [14, 22] | Nightshade plant response rating [14, 24] | Velvetleaf plant response rating [16, 24] | Plant response rating, Ducksalad [18, 28]
50: Plant response rating, Kochia [12, 23] | Nightshade plant response rating [14, 21]
5: Ragweed plant response rating [15, 22] | Velvetleaf plant response rating [16, 22]
